Results published in US20160318856A1, “Substituted Urea eIF2alpha Kinase Activators” (THE BRIGHAM AND WOMEN'S HOSPITAL, INC., priority 2013, published 2016).
Where two headings read alike, the source gives them in different places.

Columns and labels:
[1] = tested on: eIF2α phosphorylation (eIF2•GTP•Met-tRNAi ternary complex; HRI activation); assay: surrogate dual luciferase eIF2α phosphorylation (ternary complex) assay; format: cell-based, human; conditions: for maximal fold induction: Homo sapiens; for C3X: Calculated concentration of compound that will cause three-fold increase in the surrogate eIF2α phosphorylation assay: Table 7
Text: The dual luciferase expression vector and other plasmids used for these studies were previously described (see, for example, Ziegeler, G. et al. Journal of Biological Chemistry 2010, 285(20), 15408-19). The ternary complex assay, surrogate of eIF2α phosphorylation, has been described elsewhere (see, for example, Chen, T. et al. Nature Chemical Biology 2011, 7(9), 610-6). Briefly, the pBISA vector, which contains seven copies of the tetracycline-regulated transactivator response element (TRE), is flanked on both sides by minimal human cytomegalovirus (CMV) minimal promoters allowing bi-directional transcription and two MCSs (multiple cloning sites). Firefly and renilla luciferases were subcloned into MCS-I and MCS-II, respectively. This plasmid, designated pBISA-DL, transcribes two mRNAs that contain the 90 nucleotide plasmid derived 5′UTR (same sequence in both mRNAs), and the ORF encoding either firefly or renilla luciferase followed by a polyadenylation sequence. This plasmid was further modified by inserting the 5′UTR of ATF-4 mRNA into MCS-I in front of the firefly luciferase mRNA. Transcription from this unit generates an mRNA that contains the firefly luciferase ORF preceded by a 5′UTR composed of 90 nucleotides derived from the plasmid and 267 nucleotides derived from the 5′UTR of ATF-4 mRNA. Transcription from the other unit generates an mRNA that contains the renilla luciferase ORF proceeded only by the 90-nucleotide plasmid-derived sequence in the 5′UTR (pBISA-DL (ATF-4)) (see, for example, Chen, T. et al. Nature Chemical Biology 2011, 7(9), 610-6).
Cells expressing firefly and renilla luciferases were assayed with a dual glow luciferase assay kit, per manufacturer's instruction (Promega Inc., Madison, Wis.). The data calculations were carried out as the ratio of firefly to renilla luciferase signal.
A library of 1900 urea compounds was screened in the surrogate dual luciferase eIF2α phosphorylation (ternary complex) assay. This library was originally assembled and screened for inhibition of sEH by Hammock's group at UC-Davis (see, for example, Chen, T. et al. Nature Chem Biol 2011, 7, 610-616; Ziegeler, G et al. J Biol Chem 2010, 285, 15408-15419). We developed this assay in order to identify compounds that activate HRI, taking advantage of the fact that activated HRI phosphorylates eIF2α thereby reducing the amount of the eIF2•GTP•Met-tRNAi ternary complex that results in inhibition of translation of many mRNAs but paradoxically increases translation of some mRNAs that contain multiple upstream ORF (uORF) in their 5′ untranslated regions (UTRs). In our assay, firefly (F) luciferase mRNA is fused to 5′UTR of activating transcription factor 4 (ATF-4) mRNA that has multiple uORFs while renilla (R) luciferase mRNA is fused to a 5′UTR lacking any uORFs. Compounds that reduce the amount of the ternary complex, such as those activating HRI, would increase F luciferase expression while decreasing the R luciferase expression, resulting in an increased F/R luciferase ratio. To calculate the activity scores, the F/R ratios for every compound-treated wells were normalized to vehicle-treated (DMSO) wells that was arbitrarily set at 1 (F/R=1).

[2] = tested on: Panc-1; assay: cell proliferation (SRB) assay, Panc-1; format: cell-based; conditions: Homo sapiens, Table 7
Procedure: (§1) Cells were seeded in 96-well plates and maintained for 5 days in the presence of 0.5 to 20 μM of individual compound, and cell proliferation was measured by the sulforhodamine B (SRB) assay as described previously (see, for example, Palakurthi, S. S. et al. Cancer Research 2000, 60(11), 2919-2925). Briefly, at the end of a 5-day treatment, cells were fixed in 10% cold trichloroacetic acid. Cell number was estimated by measuring the remaining bound dye of sulforhodamine B after washing. The percentage of growth was calculated by using the equation: 100×[(T−T0)/(C−T0)], where T and C represent the absorbance in treated and control cultures at Day 5, and T0 at time zero, respectively. If T is less than T0, cell death has occurred and can be calculated from 100×[(T−T0)/T0].
(§2) The compounds shown in Table 7 were evaluated using for activation of HRI using the dual luciferase surrogate eIF2α phosphorylation assay (see, for example, Chen, T. et al. Nature Chem Biol 2011, 7, 610-616) and for inhibition of cell proliferation using the SRB assay (see, for example, Palakurthi, S. S. et al. Cancer Res 2000, 60, 2919-2925) as described above.

[3] = tested on: ASPC-1; assay: cell proliferation assay, ASPC-1; format: cell-based; conditions: Homo sapiens, ASPC1; SRB assay, Table 7; read-out: IC50 ASPC-1
Procedure: as §1, §2

[4] = tested on: CRL-2813 human melanoma cancer cells; assay: cell proliferation (SRB) assay, CRL-2813; format: cell-based; conditions: Homo sapiens, CRL2813
Procedure: as §1

[5] = tested on: CRL-2813 human melanoma cancer cells transfected with HRI-targeting or non-targeting siRNA; assay: cell proliferation (SRB) assay after HRI knockdown; format: cell-based; conditions: for fold higher IC50 values in cells transfected with HRI-targeting siRNA vs. non-targeting siRNA: CRL-2813 cells, FIG. 10; for dependence of inhibition of cell proliferation on HRI: HRI siRNA vs non-target siRNA, CRL-2813 (also MCF-7); for fold difference in resistance of cells to inhibition of cell proliferation upon HRI knockdown: average, CRL-2813, FIG. 8
Procedure: as §1
Cell proliferation is a meaningful read-out for determining the specificity of a compound as it captures both on-target and off-target effects of the compound under study. […] If these compounds specifically activate HRI and this activity is required for the inhibition of cell proliferation, then reducing the expression of HRI should blunt their effect on cell proliferation. For this purpose, expression of HRI was knocked down in CRL-2813 human melanoma (about 70% knockdown efficiency) and MCF-7 human breast cancer cells (about 90% knockdown efficiency). These two cell lines were chosen because the HRI knockdown efficiency is lower in CRL-2813 than in MCF-7 cells providing a sort of dose-response data that correlates knockdown efficiency with the resistance of cells to inhibition of cell proliferation. […] Referring to FIG. 5A, CRL-2813 human melanoma cancer cells, and (FIG. 5B) MCF-7 human breast cancer cells were transfected with HRI targeted or non-targeted siRNA, treated with the indicated concentrations of I-6p and cell proliferation was measured by SRB assay. Calculated IC50 for all four compounds tested in CRL-2813 human melanoma cancer cells and MCF-7 human breast cancer cells transfected with non-target siRNA control (NTC) or HRI is shown in FIG. 5C and FIG. 5D, respectively. The experiment was conducted in triplicate and each experiment was independently performed three times. Data are shown as Mean±S.E.M. *NTC=non-target siRNA control.
Referring to FIG. 8, CRL-2813 human melanoma cancer cells were transfected with HRI targeted or non-targeted siRNA, treated with the indicated concentrations of (A) I-14, (B) I-15, (C) III-4 and (D) III-5 and cell proliferation was measured by SRB assay. Calculated IC50 for all four compounds tested in CRL-2813 human melanoma cancer cells transfected with non-target siRNA control (NTC) or HRI is shown in (E). The experiment was conducted in triplicate and each experiment was independently performed three times. Data are shown as Mean±S.E.M. *NTC=non-target siRNA control, IC50=effective dose of drug that inhibit cell proliferation by 50%.
In general, if the affinity of compounds for their molecular target is increased this should result in higher specificity of the compounds in the cell proliferation assay. […] These five compounds, two with average and three with high potency, were tested in cell proliferation assay using CRL-2813 cells transfected with non-targeted siRNA or HRI-targeted siRNA as described above.

[6] = DMSO = 1, maximum tested concentration 20 μM, read-out: Emax: Maximum activity of compound expressed as fold over vehicle
[7] = SRB assay, Table 7, read-out: IC50 CRL-2813
[8] = surrogate eIF2α phosphorylation assay, Table 3, read-out: Emax (F/R)
[9] = cell proliferation assay, Table 3, cell line not named, values equal CRL-2813 values of Table 8, read-out: IC50
[10] = surrogate eIF2α phosphorylation assay, Table 4, read-out: Emax (F/R)
[11] = cell proliferation assay, Table 4, cell line not named, read-out: IC50

| SMILES | maximal fold induction [1, 6] | C3X: Calculated concentration of compound that will cause three-fold increase in the surrogate eIF2α phosphorylation assay [1] [µM] | IC50 [2] [nM] | IC50 [3] [nM] | IC50 [4, 7] [nM] | maximal fold induction [1, 8] | fold higher IC50 values in cells transfected with HRI-targeting siRNA vs. non-targeting siRNA [5] [fold] | dependence of inhibition of cell proliferation on HRI [5] | fold difference in resistance of cells to inhibition of cell proliferation upon HRI knockdown [5] [fold] | IC50 [4, 9] [nM] | maximal fold induction [1, 10] | IC50 [4, 11] [nM] |
| --- | --- | --- | --- | --- | --- | --- | --- | --- | --- | --- | --- | --- |
| NC(=O)c1cc(C(F)(F)F)ccc1O[C@H]1CC[C@H](NC(=O)Nc2cccc(OC(F)(F)F)c2)CC1 | 6 | 8 | 1900 | 3200 | 1400 | – | – | – | – | – | – | – |
| NC(=O)c1cc(O[C@H]2CC[C@H](NC(=O)Nc3cccc(OC(F)(F)F)c3)CC2)ccc1C(F)(F)F | 5 | 14 | 3000 | 2900 | 3000 | – | – | – | – | – | – | – |
| O=C(Nc1cccc(OC(F)(F)F)c1)N[C@H]1CC[C@H](Oc2ccc(C(F)(F)F)cc2)CC1 | 28 | 0.2 | 1500 | 1000 | 900 | – | – | – | – | – | – | – |
| CC(=O)Nc1cc(C(F)(F)F)ccc1O[C@H]1CC[C@H](NC(=O)Nc2cccc(OC(F)(F)F)c2)CC1 | 5 | 4 | 2500 | 2800 | 1700 | – | – | – | – | – | – | – |
| CC(=O)Nc1cc(C(F)(F)F)ccc1O[C@H]1CC[C@H](NC(=O)Nc2cccc(C(F)(F)F)c2)CC1 | 4.2 | 3.5 | 1700 | 2600 | 1900 | – | – | – | – | – | – | – |
| O=C(Nc1cc(C(F)(F)F)cc(C(F)(F)F)c1)N[C@H]1CC[C@H](Oc2ccc(C(F)(F)F)cc2)CC1 | 38 | 0.15 | 700 | – | 150 | – | – | – | – | – | – | – |
| N#Cc1cccc(NC(=O)N[C@H]2CC[C@H](Oc3ccc(C(F)(F)F)cc3)CC2)c1 | 10 | 2 | 2500 | – | 800 | – | – | – | – | – | – | – |
| N#Cc1ccc(NC(=O)N[C@H]2CC[C@H](Oc3ccc(C(F)(F)F)cc3)CC2)cc1 | 9 | 0.6 | 2000 | – | 900 | – | – | – | – | – | – | – |
| O=C(Nc1cccc(C(F)(F)F)c1)N[C@H]1CC[C@H](Oc2ccc(C(F)(F)F)cn2)CC1 | 6 | 3.5 | 2800 | – | 1500 | – | – | – | – | – | – | – |
| N#Cc1cc(C(F)(F)F)ccc1O[C@H]1CC[C@H](NC(=O)Nc2cccc(C(F)(F)F)c2)CC1 | 8 | 2.5 | 1800 | – | 1300 | – | – | – | – | – | – | – |
| N#Cc1ccc(O[C@H]2CC[C@H](NC(=O)Nc3cccc(C(F)(F)F)c3)CC2)cc1 | 4 | 5 | 3000 | – | 4000 | – | – | – | – | – | – | – |
| O=C(Nc1cccc(C(F)(F)F)c1)N[C@H]1CC[C@H](Oc2ccc(F)cc2)CC1 | 11 | 2.5 | 3000 | – | 2100 | – | – | – | – | – | – | – |
| O=C(Nc1cccc(C(F)(F)F)c1)NC1CCC(Oc2ccccc2F)CC1 (stereo not drawn) [Compound I-14, 1-(4-(2-Fluorophenoxy)cyclohexyl)-3-(3-(trifluoromethyl)phenyl)urea] | – | – | – | – | – | 7.98 | ~7 | dependent on HRI | ~8 | 2450 ± 900 | – | – |
| O=C(Nc1cccc(C(F)(F)F)c1)NC1CCC(Oc2cccc(F)c2)CC1 (stereo not drawn) [Compound I-15, 1-(4-(3-Fluorophenoxy)cyclohexyl)-3-(3-(trifluoromethyl)phenyl)urea] | – | – | – | – | – | 7.23 | ~7 | dependent on HRI | ~8 | 2400 ± 600 | – | – |
| O=C(Nc1cccc(C(F)(F)F)c1)NC1CCC(OCc2ccc(F)cc2)CC1 (stereo not drawn) [III-4, 1-(4-((4-Fluorobenzyl)oxy)cyclohexyl)-3-(3-(trifluoromethyl)phenyl)urea] | – | – | – | – | – | – | – | dependent on HRI | – | – | 9.58 | 2650 ± 800 |
| O=C(Nc1cccc(C(F)(F)F)c1)NC1CCCCC1Oc1ccc(C(F)(F)F)cc1 (stereo not drawn) [III-5, 1-(2-(4-(Trifluoromethyl)phenoxy)cyclohexyl)-3-(3-(trifluoromethyl)phenyl)urea] | – | – | – | – | – | – | – | dependent on HRI | – | – | 5.89 | 3100 ± 1100 |
